Patent US20060216235A1, “Cancerous disease modifying antibodies” (priority 2003, published 2006)

Experiments:
MDA-MB-231 = experiment: Live/Dead cytotoxicity assay, hybridoma supernatants; conditions: hybridoma supernatant, 5 days
MDA-MB-468 = experiment: as above; conditions: hybridoma supernatant, 5 days
SKBR-3 = experiment: as above; conditions: hybridoma supernatant, 5 days
MB-231 = test system: MB-231; parameters: key to the marks not given beside the values; conditions: purified antibody, 5 days; four experiments in triplicate
MB-468 = test system: MB-468; parameters: key to the marks not given beside the values; conditions: purified antibody, 5 days; four experiments in triplicate
MCF-7 = test system: MCF-7; parameters: key to the marks not given beside the values; conditions: purified antibody, 5 days; four experiments in triplicate
HT-29 = test system: HT-29; parameters: key to the marks not given beside the values; conditions: purified antibody, 5 days; four experiments in triplicate
SW1116 = conditions: purified antibody, 5 days; four experiments in triplicate
SW620 = conditions: purified antibody, 5 days; four experiments in triplicate
NCI H460 = test system: NCI H460; parameters: key to the marks not given beside the values; conditions: purified antibody, 5 days; four experiments in triplicate
OVCAR = test system: OVCAR; parameters: key to the marks not given beside the values; conditions: purified antibody, 5 days; four experiments in triplicate
PC-3 = test system: PC-3; parameters: key to the marks not given beside the values; conditions: purified antibody, 5 days; four experiments in triplicate
CCD 27sk = conditions: purified antibody, 5 days; four experiments in triplicate; non-cancer cells
Hs888 Lu = conditions: purified antibody, 5 days; four experiments in triplicate; non-cancer cells

Structure (SMILES)	Cytotoxicity (%) MB-231 Average (MDA-MB-231)	Cytotoxicity (%) MB-468 Average (MDA-MB-468)	Cytotoxicity (%) SKBR-3 Average (SKBR-3)	cytotoxicity, BREAST MB-231 (MB-231)	cytotoxicity, BREAST MB-468 (MB-468)	cytotoxicity, BREAST MCF-7 (MCF-7)	cytotoxicity, COLON HT-29 (HT-29)	cytotoxicity, COLON SW1116 (SW1116)	cytotoxicity, COLON SW620 (SW620)	cytotoxicity, LUNG NCI H460 (NCI H460)	cytotoxicity, OVARY OVCAR (OVCAR)	cytotoxicity, PROSTATE PC-3 (PC-3)	cytotoxicity, NORMAL CCD27sk (CCD 27sk)	cytotoxicity, NORMAL Hs888 Lu (Hs888 Lu)
C[C@@H]1C[C@@H]([C@H](O)CC2CC(=O)NC(=O)C2)C(=O)[C@@H](C)C1 [Cycloheximide]	49%	24%	56%											
[N-]=[N+]=[N-].[Na+] [NaN3]				+++	+++	+++	+++	−	−	+++	+++	+++	−	−
